This note sets out measurements from patent US20210169993A1, “TREATMENT OF A SUBTYPE OF ASD” (STALICLA SA, priority 2017, published 2021).

This assay has as its system ASD phenotype 1 lymphoblastoid cell lines. Briefly: NADH production in Phenotype Mammalian MicroArrays (PM-M, Biolog), ASD phenotype 1 cells. The note with it: FIG. 1 (AUC) and Table 1 (endpoint absorbance). Type of assay: cell-based, human. Here is the method: From all subjects, blood samples were collected and lymphoblastoid cell lines generated. Briefly, tubes containing anticoagulant citrate dextrose (ACD) were used to collect blood samples via venipuncture, in order to ensure that the blood cells remained metabolically active. The tubes were kept at room temperature and processed within 24 hours.
Cell lines were obtained by immortalization of lymphocytes from blood samples using Epstein-Barr virus.
Energy production of cells was measured using commercially available Phenotype Mammalian MicroArrays (PM-Ms, Biolog, Hayward, Calif., USA).
The compound in each well was designed to be used by the cells, either as the sole energy source or as the metabolic effector influencing the utilization of an energy source (α-D-glucose) added in the cell suspension. […] Before plating, cell viability and number were assessed utilizing a BioRad cell counter and a trypan blue dye. The concentration of live cells required for plating was 4×10^5 cells/mL, corresponding to 20,000 cells per well in a volume of 50 μL. […] Cells were incubated for 48 h at 37° C. in 5% CO2, using the modified Biolog IF-M1 medium.
The Biolog IF-M1 medium was modified for plates PM-M1 to M4 by adding the following to 100 mL of Biolog IF-M1: 1.1 mL of 100× penicillin/streptomycin solution, 0.16 mL of 200 mM glutamine (final concentration 0.3 mM), and 5.3 mL of Fetal Bovine Serum (FBS, final concentration 5%). For plates PM-M5 to M8, 5.5 mM α-D-glucose will be added in place of FBS.
During the 48-hour incubation, the only energy source the cells had was the chemical in the well. After this first incubation, Biolog Redox Dye Mix MB was added (10 μL/well) and the plates were incubated under the same conditions for an additional 24 hours. As the cells metabolized the energy source, tetrazolium dye in the media was reduced, producing a purple color according to the amount of NADH generated.
For the last 24 hours of the experiment, the plates were incubated in the Omnilog system, which collects optical density readings every 15 minutes, generating 96 data-points for each well. The system also elaborated the kinetic curve for the metabolic reaction in each well and extrapolated parameters such as slope, highest point, endpoint, area under the curve (AUC), and lag.
At the end of the 24-hour incubation, the plates were analyzed utilizing a microplate reader with readings at 590 and 750 nm. The first value (A590) indicated the highest absorbance peak of the redox dye and the second value (A750) gave a measure of the background noise. The relative absorbance (A590-750) was calculated per well.

In the case of “FGF-1(aFGF): growth factor that selectively targets PI3K-Akt-mTOR by binding the receptor tyrosine kinase”, the “production of NADH in ASD phenotype 1 cells compared to TDs and non-phenotype 1 cells” value was “significantly reduced”. For IGF-I: insulin-like growth factor 1 the value was “no significant differences”.

Regarding IL-1beta: Th1 cytokine, the “production of NADH in ASD phenotype 1 cells compared to TDs and non-phenotype 1 cells” value was “significantly lower”. The same measure for IL-6: Th1 cytokine: “significantly lower”; for “PDGF-AB: platelet-derived growth factor AB”: “no significant differences”. For “hGH (Somatotropin): growth factor that selectively targets PI3K-Akt-mTOR by binding the receptor tyrosine kinase” the value was “significantly reduced”.
